Consider three substances from patent US5837684A, “Peptides” (Nycomed Imaging AS, priority 1995, dated 1998).

Test [1] concerns the target binary complex of TF/FVIIa (Homo sapiens, UniProt P00742). Nature of the test: lipidated TF assay (chromogenic assay measuring the FXa generated by TF/FVIIa). Particulars: for IC50: FVIIa 5 pM, FX 20 nM, TF 5 pM, CaCl2 5 mM, 15 min preincubation at ambient temperature, FXa substrate S2765, read-out: IC50: concentration of peptide inhibiting the rate of FX activation by 50%; for IC values (statement in words): lipidated TF assay, summary of Table 1. Format: biochemical. The procedure:
The inhibitory capacity of the peptides was measured by a so-called lipidated TF assay which is a chromogenic assay measuring the FXa generated by the binary complex of TF/FVIIa. FVIIa (5 pM final concentration) and FX (20 nM) were combined in the presence of different concentrations of peptide and incubated for 15 min at ambient temperature. TF (5 pM) and CaCl2 (5 mM) were added to initiate the reaction. Reactions were quenched with EDTA and the FXa activity was measured in an amidolytic assay, using the chromogenic FXa substrate S2765 (trade name). Data from these studies with this assay are shown in FIG. 1, and Table 1 hereinafter gives the corresponding IC values. Data are plotted as the percentage of the rate of FXa formation determined without peptide versus the concentration of the following peptides: hu#154-163 (SEQ. ID. NO. 1) (.circle-solid.), mu#158-167 (SEQ. ID. NO. 2) (x) and rb#152-161 (SEQ. ID. NO. 3) (Δ).

For test [2], the target named is TF/FVIIa complex (FX activation) (Homo sapiens, UniProt P00742). The test can be described thus: Dixon plot analysis of the inhibitory mechanism of FXa formation. Format: biochemical. The settings on record: Dixon plots; three FX concentrations or three TF concentrations in excess of FVIIa. The procedure: Different concentrations of peptide were mixed with FVIIa and three different concentrations of FX and, after addition of TF, the rate of FXa formation was determined. In another experiment, different concentrations of peptide were mixed with FVIIa and three different concentrations of TF, in excess of FVIIa. After addition of FX, the rate of FXa formation was determined. Results were plotted according to Dixon, the inverse of the rate of FXa formation versus peptide concentration. Peptide mu#158-167 (SEQ. ID. No. 2), produced linear regression lines, which intercepted on the abscissa (different FX concentrations) or above the abscissa (different TF concentrations).
TF/FVIIa complex (FX activation), sequence (P00742 41-179 limits assumed): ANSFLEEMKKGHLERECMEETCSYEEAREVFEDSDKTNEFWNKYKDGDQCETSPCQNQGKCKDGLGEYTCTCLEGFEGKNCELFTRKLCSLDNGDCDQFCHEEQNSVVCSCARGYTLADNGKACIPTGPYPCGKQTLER
TF/FVIIa complex (FX activation), sequence (P00742 235-488 limits assumed): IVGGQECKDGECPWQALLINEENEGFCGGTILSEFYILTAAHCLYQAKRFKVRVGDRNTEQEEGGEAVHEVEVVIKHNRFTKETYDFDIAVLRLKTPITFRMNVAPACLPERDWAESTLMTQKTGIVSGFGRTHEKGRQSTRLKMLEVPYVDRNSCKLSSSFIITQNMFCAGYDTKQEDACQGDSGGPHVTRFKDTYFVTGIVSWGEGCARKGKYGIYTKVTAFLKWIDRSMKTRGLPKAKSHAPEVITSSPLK

binary complex of TF/FVIIa, sequence (P00742 41-179 limits assumed): as the sequence (P00742 41-179 limits assumed) above
binary complex of TF/FVIIa, sequence (P00742 235-488 limits assumed): as the sequence (P00742 235-488 limits assumed) above

Consider “H--Thr--Leu--Tyr--Tyr--Trp--Arg--Ala--Ser--Ser--Thr--OH (H-TLYYWRASST-OH) [rb#152-161, 10-mer of rabbit TF residues 152-161]”, for which, in test [1], the IC50 was found to be 14 µM and the “IC values (statement in words)” value is given as “very low μm range”.
For the substance “H-IITYRKGSST-OH [mu#158-167, H--Ile--Ile--Thr--Tyr--Arg--Lys--Gly--Ser--Ser--Thr--OH]”, in test [1], the IC50 came to 21 µM and the “IC values (statement in words)” value is on record as “very low μm range”. Further, the “inhibitory mechanism of FXa formation” value in test [2] is recorded as “competes with TF or FVIIa/TF complex for interaction with FX”.
Turning to “H-TLYYWKSSSS-OH [hu#154-163, H--Thr--Leu--Tyr--Tyr--Trp--Lys--Ser--Ser--Ser--Ser--OH]”, the IC50 in test [1] was determined as 100 µM.
